Results: US9938273B2 (Plexxikon Inc., priority 2015, dated 2018)

Key:
[1] = biological target: T1, FLT3-ITD (Homo sapiens, UniProt P36888); test: AlphaScreen kinase assay with recombinant enzyme, FLT3-ITD; assay type: biochemical; conditions: 8pt; read-out: FLT3_ITD 8pt: IC50
T1 sequence (P36888 1-993): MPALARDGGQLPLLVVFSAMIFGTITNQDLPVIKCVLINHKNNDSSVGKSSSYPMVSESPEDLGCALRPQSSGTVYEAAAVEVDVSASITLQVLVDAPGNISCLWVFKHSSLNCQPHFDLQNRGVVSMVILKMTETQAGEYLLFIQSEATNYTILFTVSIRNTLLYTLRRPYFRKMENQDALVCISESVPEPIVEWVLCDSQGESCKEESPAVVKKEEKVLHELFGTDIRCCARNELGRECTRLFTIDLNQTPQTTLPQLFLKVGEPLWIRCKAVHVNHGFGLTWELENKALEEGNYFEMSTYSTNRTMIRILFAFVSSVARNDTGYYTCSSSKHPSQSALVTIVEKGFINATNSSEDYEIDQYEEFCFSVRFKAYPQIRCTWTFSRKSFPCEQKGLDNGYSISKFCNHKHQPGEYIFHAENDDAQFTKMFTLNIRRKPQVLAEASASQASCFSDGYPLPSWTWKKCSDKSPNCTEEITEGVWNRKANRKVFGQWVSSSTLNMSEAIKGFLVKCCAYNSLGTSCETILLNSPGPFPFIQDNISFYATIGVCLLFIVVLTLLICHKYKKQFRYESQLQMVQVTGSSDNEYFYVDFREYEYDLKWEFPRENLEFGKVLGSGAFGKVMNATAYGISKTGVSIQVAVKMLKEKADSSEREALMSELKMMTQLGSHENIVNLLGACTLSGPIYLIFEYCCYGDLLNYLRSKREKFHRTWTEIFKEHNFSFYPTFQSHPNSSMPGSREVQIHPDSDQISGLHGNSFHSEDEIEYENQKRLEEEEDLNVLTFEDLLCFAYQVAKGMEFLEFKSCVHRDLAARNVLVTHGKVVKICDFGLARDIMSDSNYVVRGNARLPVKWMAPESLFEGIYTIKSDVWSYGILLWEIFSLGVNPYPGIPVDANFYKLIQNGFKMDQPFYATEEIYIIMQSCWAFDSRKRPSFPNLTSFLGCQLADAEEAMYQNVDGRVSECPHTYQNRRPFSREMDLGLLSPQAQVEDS
In short: (§1)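 Read-out: AlphaScreen proximity signal at 580 nm (680 nm excitation), lost as peptide tyrosine phosphorylation falls. Substrate Biotin-GG(EEEEY)10EE at 30 nM; IC50 runs at 10 μM (FLT3 mutants) or 100 μM (c-KIT) final. Donor beads 20 min, then acceptor beads 60 min, room temperature.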

[2] = biological target: T2, c-KIT (Homo sapiens, UniProt P10721); test: AlphaScreen kinase assay with recombinant enzyme, c-KIT; assay type: biochemical; conditions: 100ATP, 8pt, GMean
T2 construct: purchased Millipore 14-559K
In short: as §1

T2 sequence (P10721 26-976): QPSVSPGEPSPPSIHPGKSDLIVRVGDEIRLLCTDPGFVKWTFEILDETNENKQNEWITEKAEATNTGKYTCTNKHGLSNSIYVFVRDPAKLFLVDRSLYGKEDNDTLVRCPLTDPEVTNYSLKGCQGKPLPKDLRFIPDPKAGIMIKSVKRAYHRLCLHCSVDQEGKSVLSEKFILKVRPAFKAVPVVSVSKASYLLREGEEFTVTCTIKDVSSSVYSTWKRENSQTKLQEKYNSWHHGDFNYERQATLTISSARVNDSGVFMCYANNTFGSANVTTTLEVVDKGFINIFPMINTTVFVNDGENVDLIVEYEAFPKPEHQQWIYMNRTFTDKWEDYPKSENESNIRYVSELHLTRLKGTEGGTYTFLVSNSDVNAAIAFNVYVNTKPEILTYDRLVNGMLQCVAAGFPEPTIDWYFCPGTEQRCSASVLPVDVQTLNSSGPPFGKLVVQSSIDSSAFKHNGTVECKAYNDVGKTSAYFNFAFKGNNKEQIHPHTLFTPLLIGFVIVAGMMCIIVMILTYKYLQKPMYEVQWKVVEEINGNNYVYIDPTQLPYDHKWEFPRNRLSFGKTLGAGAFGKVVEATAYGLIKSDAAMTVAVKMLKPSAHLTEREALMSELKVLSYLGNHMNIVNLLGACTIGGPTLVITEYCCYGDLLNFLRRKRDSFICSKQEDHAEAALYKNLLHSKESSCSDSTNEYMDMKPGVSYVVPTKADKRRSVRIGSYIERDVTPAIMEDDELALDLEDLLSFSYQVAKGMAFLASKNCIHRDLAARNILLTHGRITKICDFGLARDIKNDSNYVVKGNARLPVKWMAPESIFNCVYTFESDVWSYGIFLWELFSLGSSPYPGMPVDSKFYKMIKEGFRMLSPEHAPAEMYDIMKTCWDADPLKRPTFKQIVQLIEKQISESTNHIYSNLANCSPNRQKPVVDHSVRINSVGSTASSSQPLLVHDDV

| Structure (SMILES) | IC50 [1] | IC50 [2] |
| --- | --- | --- |
| O=S(=O)(NC1CNC1)c1cccc(-c2cnc3[nH]c(-c4ccccc4)cc3c2)n1 [Compound P-0071, N-(azetidin-3-yl)-6-(2-phenyl-1H-pyrrolo[2,3-b]pyridin-5-yl)pyridine-2-sulfonamide] | 0.0001 to 10 µM | 10 to 50 µM |
| O=S(=O)(NC1CCNC1)c1cccc(-c2cnc3[nH]c(-c4ccccc4)cc3c2)n1 (stereo not drawn) [Compound P-0072, 6-(2-phenyl-1H-pyrrolo[2,3-b]pyridin-5-yl)-N-pyrrolidin-3-yl-pyridine-2-sulfonamide] | 0.0001 to 10 µM | 0.0001 to 10 µM |
| NC1CCN(S(=O)(=O)c2cccc(-c3cnc4[nH]c(-c5ccccc5)cc4c3)n2)CC1 [Compound P-0073, 1-[[6-(2-phenyl-1H-pyrrolo[2,3-b]pyridin-5-yl)-2-pyridyl]sulfonyl]piperidin-4-amine] | 0.0001 to 10 µM | 0.0001 to 10 µM |
| O=C(Nc1cccc(-c2cnc3[nH]c(-c4ccccc4)cc3c2)n1)C1CNC1 [Compound P-0084, N-[6-(2-phenyl-1H-pyrrolo[2,3-b]pyridin-5-yl)-2-pyridyl]azetidine-3-carboxamide] | 0.0001 to 10 µM | 0.0001 to 10 µM |
| O=S(=O)(NC1CCNCC1)c1cccc(-c2cnc3[nH]c(-c4ccccc4)cc3c2)n1 [Compound P-0086, 6-(2-phenyl-1H-pyrrolo[2,3-b]pyridin-5-yl)-N-(4-piperidyl)pyridine-2-sulfonamide] | 0.0001 to 10 µM | 0.0001 to 10 µM |
| NC1CCC(NS(=O)(=O)c2cccc(-c3cnc4[nH]c(-c5ccccc5)cc4c3)n2)CC1 (stereo not drawn) [Compound P-0088, N-(4-aminocyclohexyl)-6-(2-phenyl-1H-pyrrolo[2,3-b]pyridin-5-yl)pyridine-2-sulfonamide] | 0.0001 to 10 µM | 0.0001 to 10 µM |
| O=C(c1cccc(-c2cnc3[nH]c(-c4ccccc4)cc3c2)n1)N1CC(F)(F)C1 [Compound P-0090, (3,3-difluoroazetidin-1-yl)-[6-(2-phenyl-1H-pyrrolo[2,3-b]pyridin-5-yl)-2-pyridyl]methanone] | 0.0001 to 10 µM | 50 to 100 µM |
| COC1CN(C(=O)c2cccc(-c3cnc4[nH]c(-c5ccccc5)cc4c3)n2)C1 [Compound P-0091, (3-methoxyazetidin-1-yl)-[6-(2-phenyl-1H-pyrrolo[2,3-b]pyridin-5-yl)-2-pyridyl]methanone] | 0.0001 to 10 µM | 50 to 100 µM |
| CC(C)(C#N)NC(=O)c1cccc(-c2cnc3[nH]c(-c4ccc(C(F)(F)F)nc4)cc3c2)n1 [Compound P-0201, N-(1-cyano-1-methyl-ethyl)-6-[2-[6-(trifluoromethyl)-3-pyridyl]-1H-pyrrolo[2,3-b]pyridin-5-yl]pyridine-2-carboxamide] | 0.0001 to 10 µM | 50 to 100 µM |
| CC(C)(C#N)NC(=O)c1cccc(-c2cnc3[nH]c(-c4cnc(C(F)(F)F)nc4)cc3c2)n1 [Compound P-0204, N-(1-cyano-1-methyl-ethyl)-6-[2-[2-(trifluoromethyl)pyrimidin-5-yl]-1H-pyrrolo[2,3-b]pyridin-5-yl]pyridine-2-carboxamide] | 0.0001 to 10 µM | 50 to 100 µM |
| CC(C)(C#N)NC(=O)c1cccc(-c2cnc3[nH]c(-c4ccc(F)nc4)cc3c2)n1 [Compound P-0208, N-(1-cyano-1-methyl-ethyl)-6-[2-(6-fluoro-3-pyridyl)-1H-pyrrolo[2,3-b]pyridin-5-yl]pyridine-2-carboxamide] | 0.0001 to 10 µM | 50 to 100 µM |
| CC(C)(C#N)NC(=O)c1cccc(-c2cnc3[nH]c(-c4cnc(C(C)(C)O)nc4)cc3c2)n1 [Compound P-0211, N-(1-cyano-1-methyl-ethyl)-6-[2-[2-(1-hydroxy-1-methyl-ethyl)pyrimidin-5-yl]-1H-pyrrolo[2,3-b]pyridin-5-yl]pyridine-2-carboxamide] | 0.0001 to 10 µM | 50 to 100 µM |

Now from value to compound:

| IC50 [1] | IC50 [2] | Structure (SMILES) |
| --- | --- | --- |
| 0.0001 to 10 µM | 0.0001 to 10 µM | CNC1CCN(C(=O)c2cccc(-c3cnc4[nH]c(C5=CCC(C)(C)CC5)cc4c3)n2)C1 (stereo not drawn) [Compound P-0070, [6-[2-(4,4-dimethylcyclohexen-1-yl)-1H-pyrrolo[2,3-b]pyridin-5-yl]-2-pyridyl]-[3-(methylamino)pyrrolidin-1-yl]methanone] |
| 0.0001 to 10 µM | 0.0001 to 10 µM | O=C(c1cccc(-c2cnc3[nH]c(-c4ccccc4)cc3c2)n1)N1CCC(NC2CC2)C1 (stereo not drawn) [Compound P-0085, [3-(cyclopropylamino)pyrrolidin-1-yl]-[6-(2-phenyl-1H-pyrrolo[2,3-b]pyridin-5-yl)-2-pyridyl]methanone] |
| 0.0001 to 10 µM | 50 to 100 µM | CC1(C#N)CCN(C(=O)c2cccc(-c3cnc4[nH]c(-c5ccccc5)cc4c3)n2)CC1 [Compound P-0094, 4-methyl-1-[6-(2-phenyl-1H-pyrrolo[2,3-b]pyridin-5-yl)pyridine-2-carbonyl]piperidine-4-carbonitrile] |
| 0.0001 to 10 µM | 50 to 100 µM | COC1CCN(C(=O)c2cccc(-c3cnc4[nH]c(-c5ccccc5)cc4c3)n2)CC1 [Compound P-0098, (4-methoxy-1-piperidyl)-[6-(2-phenyl-1H-pyrrolo[2,3-b]pyridin-5-yl)-2-pyridyl]methanone] |
| 0.0001 to 10 µM | 50 to 100 µM | CS(=O)(=O)NC1CCN(C(=O)c2cccc(-c3cnc4[nH]c(-c5ccccc5)cc4c3)n2)C1 (stereo not drawn) [Compound P-0101, N-[1-[6-(2-phenyl-1H-pyrrolo[2,3-b]pyridin-5-yl)pyridine-2-carbonyl]pyrrolidin-3-yl]methanesulfonamide] |
| 0.0001 to 10 µM | 50 to 100 µM | O=C(c1cccc(-c2cnc3[nH]c(-c4ccccc4)cc3c2)n1)N1CCC(N2CCOCC2)C1 (stereo not drawn) [Compound P-0102, (3-morpholinopyrrolidin-1-yl)-[6-(2-phenyl-1H-pyrrolo[2,3-b]pyridin-5-yl)-2-pyridyl]methanone] |
| 0.0001 to 10 µM | 50 to 100 µM | O=C(c1cccc(-c2cnc3[nH]c(-c4ccccc4)cc3c2)n1)N1CCC(C(F)(F)F)C1 (stereo not drawn) [Compound P-0103, [6-(2-phenyl-1H-pyrrolo[2,3-b]pyridin-5-yl)-2-pyridyl]-[3-(trifluoromethyl)pyrrolidin-1-yl]methanone] |
| 0.0001 to 10 µM | 0.0001 to 10 µM | CN(C)C1CCN(C(=O)c2cccc(-c3cnc4[nH]c(-c5ccccc5)cc4c3)n2)C1 (stereo not drawn) [Compound P-0104, [3-(dimethylamino)pyrrolidin-1-yl]-[6-(2-phenyl-1H-pyrrolo[2,3-b]pyridin-5-yl)-2-pyridyl]methanone] |
| 0.0001 to 10 µM | 0.0001 to 10 µM | N#CC1CCN(C(=O)c2cccc(-c3cnc4[nH]c(-c5ccc(F)cc5)cc4c3)n2)C1 (stereo not drawn) [Compound P-0116, 1-[6-[2-(4-fluorophenyl)-1H-pyrrolo[2,3-b]pyridin-5-yl]pyridine-2-carbonyl]pyrrolidine-3-carbonitrile] |
